Data on 17 compounds can be found in US20100331310A1, “BICYCLOAMINE DERIVATIVES” (priority 2008, published 2010).

In test [1] the test system is sodium channels in cultured rat hippocampus. The settings on record: cited from earlier work.
Test [2] has as its system ectopic firing. The settings on record: as described in Patent document 1; cited from earlier work.
The target in test [3] is T1, human Nav1.8 (Homo sapiens, UniProt Q9Y5Y9).
T1 construct: expressed in transfected cells
Nature of the test: Membrane potential increase-inhibitory action on TTX-resistant Na channels in cells expressing human Nav1.8 gene (deltamethrin stimulation). Format: cell-based. On the procedure:
A cell line expressing human Nav1.8 gene was used to evaluate the pharmacological effects of compounds of the invention.
1. A membrane potential-sensitive dye containing TTX (final concentration: 0.25 μM) was added to cells expressing human Nav1.8, prior to incubation at 37° C. for 30-60 minutes. 2. The test compound was added to the cells, and the mixture was stationed for 15-30 minutes at room temperature while shielded from light. 3. Deltamethrin (final concentration: 50 μM), a Nav1.8 channel stimulant, was added, and the change in fluorescence intensity due to increased membrane potential was measured.
The Nav1.8 channel inhibition of the test compound was determined by the following equation.

The test system of test [4] is rats that exhibited ectopic firing (left saphenous nerve). Nature of the test: Suppression of ectopic firing in rats with cut saphenous nerve. The settings on record: rat, urethane anesthesia, administration via catheter in right cervical vein; number of firings every 10 seconds; read-out: Suppressing activity on ectopic firing, ED50. The format is in vivo. On the procedure:
(1) The suppressing effect on ectopic firing was evaluated by the following method, with reference to Burchiel, K J., Exp. Neurol., 102, 249-253 (1988). […] The left saphenous nerve was exposed under urethane anesthesia (1 g/kg body weight), and an area approximately 1 cm adjacent to the cutting site was removed from the surrounding tissue. A catheter was inserted into the right cervical vein for administration of the compound. (3) The removed nerve was placed on a platinum hook electrode and covered with liquid paraffin to avoid drying of the nerve. The electrode was connected to a microelectrode amp, and the change in potential was recorded on a computer from an oscilloscope, via an A/D converter. The recorded nerve firing was evaluated based on the number of firings every 10 seconds, using analysis software (AcqKnowledge).

Structures can show the parent of a compound that is named as a salt.

T1 sequence (Q9Y5Y9 whole entry): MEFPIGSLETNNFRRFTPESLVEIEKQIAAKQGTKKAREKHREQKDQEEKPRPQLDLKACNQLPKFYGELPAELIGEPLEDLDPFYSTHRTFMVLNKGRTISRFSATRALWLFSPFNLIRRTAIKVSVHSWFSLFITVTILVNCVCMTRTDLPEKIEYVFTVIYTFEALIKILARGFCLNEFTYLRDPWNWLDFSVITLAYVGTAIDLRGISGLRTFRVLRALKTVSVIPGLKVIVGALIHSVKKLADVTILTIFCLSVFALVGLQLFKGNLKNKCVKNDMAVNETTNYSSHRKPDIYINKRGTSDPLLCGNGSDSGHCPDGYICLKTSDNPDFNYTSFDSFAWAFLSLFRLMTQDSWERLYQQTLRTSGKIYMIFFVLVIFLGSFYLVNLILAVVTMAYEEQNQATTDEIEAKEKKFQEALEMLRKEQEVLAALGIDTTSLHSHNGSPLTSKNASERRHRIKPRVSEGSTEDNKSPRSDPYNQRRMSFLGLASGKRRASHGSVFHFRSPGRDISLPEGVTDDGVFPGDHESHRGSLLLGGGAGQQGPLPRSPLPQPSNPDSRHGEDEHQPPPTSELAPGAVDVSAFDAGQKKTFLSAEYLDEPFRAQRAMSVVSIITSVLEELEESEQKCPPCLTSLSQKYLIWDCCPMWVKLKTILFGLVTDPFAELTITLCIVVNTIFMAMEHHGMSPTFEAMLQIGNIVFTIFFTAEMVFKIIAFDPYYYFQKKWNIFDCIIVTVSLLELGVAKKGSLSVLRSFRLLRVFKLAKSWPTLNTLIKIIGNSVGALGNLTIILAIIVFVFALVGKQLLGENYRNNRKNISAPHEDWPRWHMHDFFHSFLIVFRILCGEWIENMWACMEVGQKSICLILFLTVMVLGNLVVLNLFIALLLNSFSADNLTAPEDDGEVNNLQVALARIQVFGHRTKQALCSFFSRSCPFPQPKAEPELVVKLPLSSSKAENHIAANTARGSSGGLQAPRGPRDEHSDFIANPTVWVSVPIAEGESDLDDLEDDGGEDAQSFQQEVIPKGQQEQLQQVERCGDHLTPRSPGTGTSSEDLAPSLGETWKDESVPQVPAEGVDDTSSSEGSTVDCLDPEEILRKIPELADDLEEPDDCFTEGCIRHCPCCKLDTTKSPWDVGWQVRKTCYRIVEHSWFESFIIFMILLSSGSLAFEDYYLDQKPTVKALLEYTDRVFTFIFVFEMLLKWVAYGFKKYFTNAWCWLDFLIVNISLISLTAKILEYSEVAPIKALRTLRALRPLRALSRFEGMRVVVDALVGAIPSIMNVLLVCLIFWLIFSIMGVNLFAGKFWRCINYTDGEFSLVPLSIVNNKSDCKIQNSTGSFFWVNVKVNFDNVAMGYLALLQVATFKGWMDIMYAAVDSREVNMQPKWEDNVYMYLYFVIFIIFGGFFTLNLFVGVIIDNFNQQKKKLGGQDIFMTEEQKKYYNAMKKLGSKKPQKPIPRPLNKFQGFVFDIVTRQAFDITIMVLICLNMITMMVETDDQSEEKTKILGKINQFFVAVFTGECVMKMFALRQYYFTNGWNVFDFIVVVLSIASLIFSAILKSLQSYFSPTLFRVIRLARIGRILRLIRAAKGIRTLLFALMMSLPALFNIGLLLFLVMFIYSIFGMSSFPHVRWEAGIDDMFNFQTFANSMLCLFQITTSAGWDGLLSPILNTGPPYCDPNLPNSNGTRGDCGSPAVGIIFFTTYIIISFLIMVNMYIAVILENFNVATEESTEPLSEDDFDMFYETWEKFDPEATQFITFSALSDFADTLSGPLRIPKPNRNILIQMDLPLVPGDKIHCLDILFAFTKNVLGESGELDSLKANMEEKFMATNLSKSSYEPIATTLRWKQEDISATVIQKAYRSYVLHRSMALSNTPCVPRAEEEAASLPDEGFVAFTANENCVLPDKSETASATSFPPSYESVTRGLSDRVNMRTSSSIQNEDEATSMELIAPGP

Take `O=c1[nH]cccc1CN1CC2CCCC(C1)C2/C=C/c1ccccc1F` (stereo not shown): the “Inhibitory activity against sodium channels” value in test [1] is recorded as “has an inhibitory activity”. The “Inhibitory activity against ectopic firing” value in test [2] is given as “inadequate”.

With `Cc1nn(C[C@H](F)CN2C3CCC2CC(OCc2cccc(F)c2)C3)c(=O)n1C` (stereo partly drawn) [Example 1, (Endo)-2-{(R)-2-fluoro-3-[3-(3-fluorobenzyloxy)-8-azabicyclo[3.2.1]oct-8-yl]propyl}-4,5-dimethyl-2,4-dihydro[1,2,4]triazol-3-one], inhibition in test [3] was half-maximal at 3.2 µM (IC50). In addition, in test [4], the ED50 stood at 0.14 mg/kg.

Take `Cc1nn(C[C@H](F)CN2[C@@H]3CC[C@H]2C[C@@H](OCc2ccccc2F)C3)c(=O)n1C` [Example 4, (Endo)-2-{(R)-2-fluoro-3-[3-(2-fluorobenzyloxy)-8-azabicyclo[3.2.1]oct-8-yl]propyl}-4,5-dimethyl-2,4-dihydro[1,2,4]triazol-3-one]: the IC50 in test [3] was 5 µM. Moreover, the ED50 in test [4] came out at 0.23 mg/kg.

In test [3], `Cc1nn(C[C@H](F)CN2C3CCC2CC(OCc2ccccc2CF)C3)c(=O)n1C` (stereo partly drawn) [Example 6, (Endo)-2-{(R)-2-fluoro-3-[3-(2-fluoromethylbenzyloxy)-8-azabicyclo[3.2.1]oct-8-yl]propyl}-4,5-dimethyl-2,4-dihydro[1,2,4]triazol-3-one] returned an IC50 of 5.2 µM. Moreover, the ED50 in test [4] stood at 0.27 mg/kg.

Take `Cc1nc(=O)n(C[C@@H](F)CN2C3CCC2CC(OCc2ccc(F)cc2)C3)c(=O)n1C` (stereo partly drawn) [Example 12, (Endo)-3-{(S)-2-fluoro-3-[3-(4-fluorobenzyloxy)-8-azabicyclo[3.2.1]oct-8-yl]propyl}-1,6-dimethyl-1H-[1,3,5]triazine-2,4-dione oxalate]: the IC50 in test [3] was 8.7 µM. Also, the ED50 in test [4] was determined as 0.28 mg/kg.

In test [3], `Cc1cccc(COC2CC3CCC(C2)N3CC(F)Cn2nc(N(C)C)n(C)c2=O)c1` (stereo not drawn) [Example 25, (Endo)-5-dimethylamino-2-{2-fluoro-3-[3-(3-methylbenzyloxy)-8-azabicyclo[3.2.1]oct-8-yl]propyl}-4-methyl-2,4-dihydro[1,2,4]triazol-3-one] displayed an IC50 of 0.71 µM. In test [4], the ED50 was below 0.1 mg/kg.

Compound `Cc1cc(-n2c(C)nn(CC(O)CN3[C@@H]4CC[C@H]3C[C@@H](OCc3ccccc3F)C4)c2=O)on1` (stereo partly drawn) [Example 47, (Endo)-2-{3-[3-(2-fluorobenzyloxy)-8-azabicyclo[3.2.1]oct-8-yl]-2-hydroxypropyl}-5-methyl-4-(3-methyl-isoxazol-5-yl)-2,4-dihydro[1,2,4]triazol-3-one oxalate] gave an IC50 in test [3] of 1.3 µM. The ED50 in test [4] was 0.18 mg/kg.

For `O=c1n(-c2ccccc2)cnn1CCCN1[C@@H]2CC[C@H]1C[C@@H](OCc1ccccc1F)C2` [Example 58, (Endo)-2-{3-[3-(2-fluorobenzyloxy)-8-azabicyclo[3.2.1]oct-8-yl]propyl}-4-phenyl-2,4-dihydro[1,2,4]triazol-3-one], the IC50 in test [3] is 0.13 µM. In test [4], the ED50 amounted to 0.18 mg/kg.

Compound `CN1CCn2c1nn(CC(F)CN1[C@@H]3CC[C@H]1C[C@@H](OCc1ccc(F)cc1)C3)c2=O` (stereo partly drawn) [Example 112, (Endo)-2-{2-fluoro-3-[3-(4-fluorobenzyloxy)-8-azabicyclo[3.2.1]oct-8-yl]propyl}-7-methyl-2,5,6,7-tetrahydroimidazo[2,1-c][1,2,4]triazol-3-one] displayed an IC50 in test [3] of 12 µM. The ED50 in test [4] amounted to 0.29 mg/kg.

For the compound `O=c1n(CCCN2[C@@H]3CC[C@H]2C[C@@H](OCc2ccccc2F)C3)nc2n1CCS2` [Example 116, (Endo)-2-{3-[3-(2-fluorobenzyloxy)-8-azabicyclo[3.2.1]oct-8-yl]propyl}-5,6-dihydro-2H-thiazolo[2,3-c][1,2,4]triazol-3-one], 5.8 µM corresponded to half-maximal inhibition in test [3] (IC50). Also, the ED50 in test [4] is 0.15 mg/kg.

With `O=c1nc2n(c(=O)n1CCCN1[C@@H]3CC[C@H]1C[C@@H](CCc1ccccc1F)C3)CCCC2` [Example 129, (Endo)-3-(3-{3-[2-(2-fluorophenyl)ethyl)-8-azabicyclo[3.2.1]oct-8-yl}propyl]-6,7,8,9-tetrahydropyrido[1,2-a][1,3,5]triazine-2,4-dione oxalate], the IC50 in test [3] turned out to be 9.8 µM. Besides, in test [4], the ED50 turned out to be 0.13 mg/kg.

For `O=c1n(CCCN2[C@@H]3CC[C@H]2C[C@@H](OCc2ccccc2F)C3)nc2ccccn12` [Example 145, (Endo)-2-{3-[3-(2-fluorobenzyloxy)-8-azabicyclo[3.2.1]oct-8-yl]propyl}-2H-[1,2,4]triazolo[4,3-a]pyridin-3-one], half-maximal inhibition in test [3] (IC50) was put at 0.53 µM. The ED50 in test [4] was 0.28 mg/kg.

In turn, `O=c1n(CCCN2[C@@H]3CC[C@H]2C[C@@H](CCc2ccccc2F)C3)nc2ccccn12` [Example 149, (Endo)-2-(3-{3-[2-(2-fluorophenyl)ethyl)-8-azabicyclo[3.2.1]oct-8-yl}propyl]-2H-[1,2,4]triazolo[4,3-a]pyridin-3-one] came in with an IC50 in test [3] of 0.28 µM. Further, in test [4], the ED50 is 0.15 mg/kg.

As to `COC(CN1[C@@H]2CC[C@H]1C[C@@H](OCc1ccccc1F)C2)Cn1nc2ccccn2c1=O` (stereo partly drawn) [Example 157, (Endo)-2-{3-[3-(2-fluorobenzyloxy)-8-azabicyclo[3.2.1]oct-8-yl]-2-methoxypropyl}-2H-[1,2,4]triazolo[4,3-a]pyridin-3-one], the IC50 in test [3] was 1.2 µM. The ED50 in test [4] came to 0.28 mg/kg.

In test [3], `Cn1ccn2c(=O)n(CCCN3[C@@H]4CC[C@H]3C[C@@H](OCc3ccccc3F)C4)c(=O)nc12` [Example 174, (Endo)-3-{3-[3-(2-fluorobenzyloxy)-8-azabicyclo[3.2.1]oct-8-yl]propyl}-8-methyl-8H-imidazo[1,2-a][1,3,5]triazine-2,4-dione] came in with an IC50 of 0.89 µM. Further, the ED50 in test [4] came out at 0.21 mg/kg.

Compound `Cc1nc2ccccn2c(=O)c1CCN1[C@@H]2CC[C@H]1C[C@@H](OCc1ccccc1F)C2` [Example 179, (Endo)-3-{2-[3-(2-fluorobenzyloxy)-8-azabicyclo[3.2.1]oct-8-yl]ethyl}-2-methylpyrido[1,2-a]pyrimidin-4-one oxalate] registered an IC50 in test [3] of 8.7 µM. Moreover, the 50% effective dose (ED50) in test [4] is 0.14 mg/kg.

`Cc1nc(C)n(C)c(=O)c1CCN1[C@@H]2CC[C@H]1C[C@@H](OCc1ccccc1F)C2` [Example 184, (Endo)-5-{2-[3-(2-fluorobenzyloxy)-8-azabicyclo[3.2.1]oct-8-yl]ethyl}-2,3,6-trimethyl-3H-pyrimidin-4-one oxalate]: the midpoint of inhibition in test [3], the IC50, lay at 7.6 µM. Moreover, the 50% effective dose (ED50) in test [4] was 0.19 mg/kg.
